Our source for the IC50 values is paper PMC3474888 (Pharmaceutical research, 2012).

This test concerns tubulin. The test can be described thus: tubulin assembly inhibition, turbidimetry at […] nm. The format is biochemical, Bos taurus. The following applies: read-out: Inhibition of / Tubulin Assembly IC50±SD.

On to `COc1ccc(N(C)c2nc(C)nc3cc[nH]c23)cc1` [compound 3, N-(4-Methoxyphenyl)-N,2-dimethyl-5H-pyrrolo[3,2-d]pyrimidin-4-amine], for which the IC50 amounted to 10 ± 0.6 µM.
